Reference: patent US11717528B2, “Methods and compositions relating to the treatment of fibrosis” (BROWN UNIVERSITY, priority 2017, dated 2023)
“Also recorded” adds a separate entry of the source.

Columns and labels:
[1] = test system: bleomycin-induced pulmonary fibrosis; experiment: bleomycin I.T. model of pulmonary fibrosis; format: in vivo, mice; conditions: bleomycin I.T. model (FIG. 9)
Description: FIG. 5 depicts schematic diagrams of in vivo validation of antifibrotic effect of Chit1 inhibitors using bleomycin models of pulmonary fibrosis
FIG. 9 depicts BAL cell recovery and total lung coallagen with and without Kasugamycin treatment (I.T. Model)
(§1) The results were validated by measuring dose-response (FIG. 4). Assay conditions were 0.33 nM of recombinant Chit1, 1 μM of test compound, 4 μM of substrate, 30 min incubation at room temperature.

[2] = test system: bleomycin-induced pulmonary fibrosis; experiment: bleomycin I.P. model of pulmonary fibrosis, kasugamycin I.P.; format: in vivo, C57 BL/6 mice; conditions: for pulmonary fibrosis / total lung collagen: bleomycin 25 Unit/kg daily for 6 days, kasugamycin 50 mg/Kg I.P. every other day, 7 doses, Sircol
Description: FIG. 2 depicts a schematic of experiments described herein, using a method reported by Inomata et al (Respiratory Research, 2014, 15:16) that was used for therapeutic efficacy of pirifenidone with minor modification. 8 Week old C57 BL/6 mice were used for the evaluation. Bleomycin (25 Unit/kg) was given daily for 6 days. Seven days after the last bleomycin challenge, Kasugamycin (50 mg/Kg) or PBS were delivered every other day via I.P. injection. The mice received a total of 7 doses of Kasugamycin. The mice were sacrificed a day after the last injection of Kasugamycin.
FIG. 3A depicts the results of a lung collagen assay by Sircol. FIG. 3B depicts results of RT-PCR assay of selected extracellular matrix genes on lung lysate *p<0.05, **p<0.01 by ANOVA evaluation, Bleo, bleomycin; KSM, kasugamycin.
The therapeutic window of kasugamycin was investigated using the method described in Inomata et al (Respiratory Research 2014 15:16) that was used to establish the therapeutic efficacy of pirifendidone, with minor modifications. Briefly, 8 week old C57 BL/6 mice were used for the evaluation. Bleomycin (25 Unit/kg) was given daily for 6 days. Seven days after the last bleomycin challenge, kasugamycin (50 mg/Kg) or PBS were delivered every other day via I.P. injection. The mice received a total of 7 doses of kasugamycin. The mice were sacrificed a day after the last injection of kasugamycin (FIG. 2).

[3] = test system: TGFβ1-stimulated inflammation and fibrosis; experiment: transgenic TGFβ1-stimulated inflammation and fibrosis; format: in vivo, TGFβ1 transgenic mice; conditions: for fibrosis: transgenic TGFβ1 stimulation (FIG. 10, 11)
Description: FIG. 10 depicts graphs of the effect of Kasugamycin on transgenic TGFβ1-stimulated inflammation and fibrosis
FIG. 11 depicts the effect of kasugamycin on TGFβ1-stimulated fibrosis. In this figure WT=wild type mice; TG=TGFβ1 transgenic mice.
as §1

[4] = test system: bleomycin-induced pulmonary fibrosis; experiment: kasugamycin by gavage in the bleomycin IP model; format: in vivo, WT C57BL/6 mice; conditions: kasugamycin 50, 100 or 500 mg/kg by gavage everyday
Description: FIGS. 13A-13B depict the effect of kasugamycin when given by gavage in the bleomycin IP model. FIG. 13A depicts a schematic illustration of the experimental procedure. Pulmonary fibrosis was induced in WT C57BL/6 mice by injecting bleomycin 6 times intra-peritoneal (IP) injection (25 unit/kg) daily (day 1-6). Units/injection—100 uL of 6 U/mL bleomycin solution (0.6 unit/injection). Kasugamycin was then administered at 50 mg/kg, 100 mg/kg, or 500 mg/kg, gavage everyday. FIG. 13B depicts a graph of the effects on collagen count. The x-axis specifies the dose of kasugamcyin used.

[5] = test system: fibrosis (collagen accumulation); experiment: bleomycin-treated Hermansky-Pudlak syndrome mice; format: in vivo, HPS-1 null mice (pale ear mice); conditions: bleomycin IP 5 consecutive days, kasugamycin 50 mg/kg qod from day 12
Description: FIG. 12A depicts a schematic illustration of the experiemental procedure. Bleomycin was given IP for 5 consecutive days followed by kasugamycin at 50 mg/kg qod for 7 days starting on day 12. FIG. 12B depicts a graph of the effects on fibrosis (collagen accumulation).

[6] = biological target: recombinant Chit1 (Homo sapiens, UniProt Q13231); experiment: Chit1 inhibitor screen and dose-response validation; format: biochemical; conditions: for ability to inhibit Chit1 (chitotriosidase) activity: among aminoglycoside antibiotics (FIG. 1)
Sequence of recombinant Chit1 (Q13231 22-466, species assumed): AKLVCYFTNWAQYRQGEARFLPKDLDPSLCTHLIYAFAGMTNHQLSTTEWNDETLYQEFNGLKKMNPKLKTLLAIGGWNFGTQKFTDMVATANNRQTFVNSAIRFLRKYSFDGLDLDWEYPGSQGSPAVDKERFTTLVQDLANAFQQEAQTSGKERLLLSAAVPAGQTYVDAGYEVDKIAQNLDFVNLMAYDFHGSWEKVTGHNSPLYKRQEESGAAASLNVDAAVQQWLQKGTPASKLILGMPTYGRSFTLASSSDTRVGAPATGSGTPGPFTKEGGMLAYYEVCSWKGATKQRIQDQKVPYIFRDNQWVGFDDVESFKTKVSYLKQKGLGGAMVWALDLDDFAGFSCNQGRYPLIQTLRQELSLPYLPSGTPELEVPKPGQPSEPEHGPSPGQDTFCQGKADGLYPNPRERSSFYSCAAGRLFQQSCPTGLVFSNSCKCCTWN
Description: FIG. 4 depicts dose-response validation of inhibitory activities of kasuagmycin on Chit1 activities
Chit1 is a biomarker and therapeutic target of SSc-ILD, as well as plahing a significant role in bleomycin- and IL-13-induced pulmonary fibrosis. In order to discover new therapeutic approaches for fibrotic diseases, we screened for inhibitors of Chit1, using pentoxifylline as a positive control. The results of the screen were expressed as a % of the inhibitory activity of 200 uM of pentoxifylline. This assay identified 51 compounds that have more than 45% of inhibition (compared to 200 μM pentoxifylline). One of the compounds so identified was kasugamycin.
as §1

[7] = cited from earlier work

C[C@H]1O[C@H](O[C@H]2[C@H](O)[C@@H](O)[C@@H](O)[C@H](O)[C@@H]2O)[C@@H](N)C[C@@H]1NC(=N)C(=O)O [kasugamycin, 2-amino-2-[(2R,3S,5S,6R)-5-amino-2-methyl-6-[(2R,3S,5S,6S)-2,3,4,5,6-pentahydroxycyclohexyl]oxyoxan-3-yl]iminoacetic acid]
BAL cell recovery [1]: affected BAL cell recovery | fibrosis / lung collagen [1]: reduced lung collagen; also recorded: potent inhibitor of fibrosis | matrix gene expression (RT-PCR on lung lysate) ([2]; after bleomycin, kasugamycin 50 mg/Kg I.P.): decreased | pulmonary fibrosis / total lung collagen [2]: reduction of collagen; also recorded: potent inhibitor of fibrosis; also recorded: reduced pulmonary fibrosis | pulmonary fibrosis / total lung collagen ([2]; listed as Kasugamycin): decreased pulmonary fibrosis | lung histology ([2]; bleomycin I.P. model (FIG. 7)): affect on histology | inflammation ([3]; transgenic TGFβ1 stimulation (FIG. 10)): inhibited inflammation | fibrosis [3]: potent inhibitor of fibrosis | fibrosis ([3]; listed as Kasuagmyicn): inhibited | fibrosis (collagen count) [4]: reduced fibrosis | fibrosis (collagen accumulation) [5]: potent inhibitor of fibrosis | fibrosis (collagen accumulation) ([5]; listed as Kasugamycin): reduced fibrosis | inhibition of Chit1, expressed as % of the inhibitory activity of 200 uM pentoxifylline [6]: more than 45% | ability to inhibit Chit1 (chitotriosidase) activity [6]: can inhibit Chit1 | ability to inhibit Chit1 (chitotriosidase) activity ([6]; listed as Kasugamycin): unique in its ability to inhibit chitotriosidase activity | ability to inhibit Chit1 (chitotriosidase) activity ([6]; listed as kasugamcyin): unique amongst aminoglycosides in its ability to inhibit Chit 1 | water solubility [7]: water soluble
